Data from ChEMBL document CHEMBL1138583, “Pharmacophore modeling study based on known spleen tyrosine kinase inhibitors together with virtual screening for identifying novel inhibitors” (Bioorg Med Chem Lett, 2009).

Tests used:
[1] = target: T1, Tyrosine-protein kinase SYK (Homo sapiens, UniProt P43405); assay: Inhibition of recombinant Syk
[2] = target: T1, Tyrosine-protein kinase SYK; assay: Inhibition of recombinant Syk at 10 uM

IC50 [1] [nM] | inhibition [2] [%] | Structure (SMILES)
1 |  | COc1cc(Nc2nc(NC3CCCC[C@H]3N)n3ncnc3c2C(N)=O)cc(OC)c1 (stereo partly drawn)
500 |  | Oc1ccc(Nc2nccc(-c3nccs3)n2)cc1
3.7 |  | COc1cc(Nc2nc(NC3CCCC[C@H]3N)n3cnnc3c2C(N)=O)cc(OC)c1 (stereo partly drawn)
2000 |  | c1ccc2cc(Nc3nccc(-c4nccs4)n3)ccc2c1
500 |  | Nc1ccccc1COc1ccc(Nc2nccc(-c3nccs3)n2)cc1
1100 |  | Cc1cc(Nc2nn(C(C)C)c(=O)c3cc(N4CCOCC4)ccc23)[nH]n1
2000 |  | O=[N+]([O-])c1ccccc1COc1ccc(Nc2nccc(-c3nccs3)n2)cc1
110 |  | N#Cc1cccc(Nc2nc(NCCN)ncc2C(N)=O)c1
53 |  | CCc1cccc(Nc2nc(NCCN)ncc2C(N)=O)c1
4000 |  | COC(=O)c1ccccc1-c1ccc(/C=C2/SC(=S)N(Cc3ccccc3)C2=O)o1
5000 |  | NC(=O)c1cncnc1Nc1cccc(C(F)(F)F)c1
 | 51 | O=C1NC(=O)N(c2cccc(Cl)c2)C(=O)/C1=C\Nc1ccc(Cl)cc1[N+](=O)[O-]
500 |  | CS(=O)(=O)c1cccc(Oc2cccc(Nc3nccc(-c4nccs4)n3)c2)c1
6530 |  | Cc1cc(Nc2nn(CC3CCCNC3)c(=O)c3ccccc23)[nH]n1 (stereo not drawn)
92 |  | CC(C)c1cccc(Nc2nc(NCCN)ncc2C(N)=O)c1
500 |  | c1c[nH]c(-c2ccnc(Nc3ccc(Oc4ccc5c(c4)OCO5)cc3)n2)c1
310 |  | CN(C)c1ccc(-c2cc3ncccc3c(NC(C)(C)CN)n2)cc1
110 |  | Cc1cc(Nc2nccc(-c3nccs3)n2)cc(C(F)(F)F)c1
10000 |  | CN(C)CCN(C)c1ncc(C(N)=O)c(Nc2cccc(C(F)(F)F)c2)n1
3890 |  | CCc1cc(NCC(C)(C)N)n2nc(Nc3cc(OC)cc(OC)c3)c(C(N)=O)c2n1
22 |  | Cc1cc(Nc2nccc(-c3nc(C)c(CCO)s3)n2)cc(C(F)(F)F)c1
830 |  | NCCCNc1nc(-c2cccc(C(F)(F)F)c2)cc2ncccc12
72 |  | CC(C)Oc1cccc(Nc2nc(NCCN)ncc2C(N)=O)c1
11.2 |  | COc1cc(Nc2nc(NC3CCCC[C@H]3N)n3nc(C)nc3c2C(N)=O)cc(OC)c1 (stereo partly drawn)
2.5 |  | Cc1cc(C)cc(Nc2nc(CC3CCCC[C@H]3N)n3ccnc3c2C(N)=O)c1 (stereo partly drawn)
280 |  | NCCNc1ncc(C(N)=O)c(Nc2ccccc2)n1
2000 |  | c1cc(-c2nccs2)nc(Nc2ccc(OCC3CCCCC3)cc2)n1

IC50 [1] [nM] | inhibition [2] [%] | Structure (SMILES)
5000 |  | Cc1ncc(C(N)=O)c(Nc2cccc(C(F)(F)F)c2)n1
4000 |  | Cc1c(/C=C2/C(=O)Nc3ccc(S(N)(=O)=O)cc32)c2ccccc2n1C
32 |  | Cc1cc(C)cc(Nc2nccc(-c3nc(C)c(CCO)s3)n2)c1
1.6 |  | COc1cc(Nc2nc(NC3CCCCC[C@H]3N)n3ccnc3c2C(N)=O)cc(OC)c1 (stereo partly drawn)
230 |  | NCCCNc1ncc(C(N)=O)c(Nc2cccc(C(F)(F)F)c2)n1
2000 |  | COC(=O)c1ccc(COc2ccc(Nc3nccc(-c4nccs4)n3)cc2)cc1
1820 |  | Cc1ccc(C)c(Nc2nccc(-c3nccs3)n2)c1
5360 |  | Cc1cc(Nc2nn(C(C)C)c(=O)c3cc(N4CCN(C)CC4)ccc23)[nH]n1
 | 63 | COc1cccc2cc(C(N)=O)/c(=N/c3ccc(-c4ccccc4)cc3)oc12
500 |  | FC(F)(F)c1ccc(Nc2nccc(-c3nccs3)n2)cc1
9 |  | COc1cc(Nc2nc(N[C@@H]3CCCC[C@@H]3N)n3cnnc3c2C(N)=O)cc(OC)c1
2000 |  | c1cc(COc2ccc(Nc3nccc(-c4nccs4)n3)cc2)ccn1
1000 |  | c1ccc(Oc2cccc(Nc3nccc(-c4nccs4)n3)c2)cc1
26 |  | OCCCOc1cc(Nc2nccc(-c3nccs3)n2)cc(C(F)(F)F)c1
894 |  | COCCOc1ccc2c(Nc3cc(C)[nH]n3)nn(C(C)C)c(=O)c2c1
1000 |  | Fc1ccc(Nc2nccc(-c3nccs3)n2)cc1
4000 |  | COc1ccc(CNS(=O)(=O)c2ccc3c(c2)/C(=C/c2cn(C)c4ccc(OC)cc24)C(=O)N3)cc1
50 |  | Cc1cccc(Nc2nc(N[C@@H]3CCCC[C@@H]3N)ccc2C(N)=O)c1
21 |  | Cc1cc(C)cc(Nc2nc(N[C@H](CN)c3ccccc3)n3ccnc3c2C(N)=O)c1
500 |  | c1ccc(COc2cccc(Nc3nccc(-c4nccs4)n3)c2)cc1
81 |  | CCOc1cccc(Nc2nc(NCCN)ncc2C(N)=O)c1
4 |  | COc1cc(Nc2nc(N[C@@H]3CCCC[C@@H]3N)n3ncnc3c2C(N)=O)cc(OC)c1
500 |  | c1cncc(Oc2cccc(Nc3nccc(-c4nccs4)n3)c2)c1
56 |  | Cc1cc(C)cc(Nc2nccc(-c3nc(C)cs3)n2)c1
1000 |  | c1ccc(COc2ccc(Nc3nccc(-c4nccs4)n3)cc2)cc1
500 |  | c1ccn(CCOc2ccc(Nc3nccc(-c4nccs4)n3)cc2)c1
7 |  | COc1cc(Nc2nc(NC3CCCC[C@H]3N)n3nc(-c4cccc(O)c4)nc3c2C(N)=O)cc(OC)c1 (stereo partly drawn)

Structure (SMILES) | IC50 [1] [nM] | inhibition [2] [%]
N#C/C(=C\c1ccc(O)c(O)c1)C(N)=S [TYRPHOSTIN 47] | 38000 | 
COc1c(C[C@@H](C)OC(=O)Oc2ccc(O)cc2)c2c3c(C[C@@H](C)OC(=O)c4ccccc4)c(OC)c(=O)c4c(O)cc(OC)c(c5c(OC)cc(O)c(c1=O)c52)c43 [CALPHOSTIN C] | 1100 | 
COc1cc(/C=C/[N+](=O)[O-])ccc1O | 76000 | 
COc1cc(/C=C/[N+](=O)[O-])ccc1OC(=O)c1ccccc1 | 3800 | 
